Like-named read-outs stand apart in the source and are kept apart here.
How the values were obtained:
Format in all cases: cell-based, human
[1] = system: non-senescent control IMR90 ER:RAS cells; experiment: Nuclei count (Hoechst, high content imaging) senolytic assay, OIS model, non-senescent control cells; details: Homo sapiens
Summary of the method: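 Compared non-senescent and senescent IMR90 ER:RAS cultures (senescence induced with 4-OHT at 100 nM final); cells seeded 24 h before dosing, then exposed 72 h to compounds, 10-point […] range 10 μM–10 nM, triplicate. Fixed, Hoechst-stained, nuclei counted by high-content imaging; drop versus untreated reflects cell death.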

[2] = system: senescent A549 cells (etoposide-induced); experiment: Nuclei count senolytic assay, therapy-induced senescence (TIS) model, senescent cells; details: Homo sapiens, A549, Senescent cells, mean, read-out: Mean % Cell Survival
Summary of the method: (§1)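 A549 cells made senescent with 100 μM etoposide for 48 h then 3 days in normal media; non-senescent A549 as control. Cells were exposed for 72 h to a 10-point […] range (10 μM–10 nM) in triplicate, then fixed, Hoechst-stained and imaged for nuclei count.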

[3] = system: non-senescent control A549 cells; experiment: Nuclei count senolytic assay, TIS model, non-senescent control cells; details: Homo sapiens, A549, Control cells, mean, read-out: Mean % Cell Survival
Summary of the method: as §1

**Q.** For `O=c1c(O)c(-c2ccc(O)cc2)oc2c(O)c(O)cc(O)c12` [Herbacetin, herbacetin], which viability at 10 µM ([1]; IMR-90, 72 h, Control, log (dose) [M] -5, 72 h, mean n=3 (Fig 3C), read-out: Mean % Cell Survival) is on record?
**A.** The viability at 10 µM was 100%.

**Q.** What about the viability at 4.677 µM ([1]; IMR-90, 72 h, Control, log (dose) [M] -5.33, 72 h, mean n=3 (Fig 3C), read-out: Mean % Cell Survival) of the same molecule?
**A.** Its viability at 4.677 µM is 108%.

**Q.** And the viability at 2.188 µM ([1]; IMR-90, 72 h, Control, log (dose) [M] -5.66, 72 h, mean n=3 (Fig 3C), read-out: Mean % Cell Survival)?
**A.** Its viability at 2.188 µM is 97.9%.

**Q.** And the viability at 1 µM ([1]; IMR-90, 72 h, Control, log (dose) [M] -6, 72 h, mean n=3 (Fig 3C), read-out: Mean % Cell Survival)?
**A.** The viability at 1 µM was 74.4%.

**Q.** And the viability at 0.4677 µM ([1]; IMR-90, 72 h, Control, log (dose) [M] -6.33, 72 h, mean n=3 (Fig 3C), read-out: Mean % Cell Survival)?
**A.** Its viability at 0.4677 µM is 94.9%.

**Q.** And the viability at 0.2188 µM ([1]; IMR-90, 72 h, Control, log (dose) [M] -6.66, 72 h, mean n=3 (Fig 3C), read-out: Mean % Cell Survival)?
**A.** Its viability at 0.2188 µM is 93.5%.

**Q.** What about the viability at 0.1 µM ([1]; IMR-90, 72 h, Control, log (dose) [M] -7, 72 h, mean n=3 (Fig 3C), read-out: Mean % Cell Survival) of the same molecule?
**A.** The viability at 0.1 µM was 94.6%.

**Q.** What about the viability at 0.04677 µM ([1]; IMR-90, 72 h, Control, log (dose) [M] -7.33, 72 h, mean n=3 (Fig 3C), read-out: Mean % Cell Survival) of the same molecule?
**A.** The viability at 0.04677 µM was 102%.

**Q.** And the viability at 0.02188 µM ([1]; IMR-90, 72 h, Control, log (dose) [M] -7.66, 72 h, mean n=3 (Fig 3C), read-out: Mean % Cell Survival)?
**A.** Its viability at 0.02188 µM is 109%.

**Q.** What about the viability at 0.01 µM ([1]; IMR-90, 72 h, Control, log (dose) [M] -8, 72 h, mean n=3 (Fig 3C), read-out: Mean % Cell Survival) of the same molecule?
**A.** Its viability at 0.01 µM is 107%.

**Q.** What about the viability at 2.188 µM ([1]; IMR-90, Control cells, log (dose) [M] -5.66, individual replicates, SUP FIG 4C, read-out: % Cell Survival) of the same molecule?
**A.** Its viability at 2.188 µM is 94.1%.

**Q.** And the viability at 0.4677 µM ([1]; IMR-90, Control cells, log (dose) [M] -6.33, individual replicates, SUP FIG 4C, read-out: % Cell Survival)?
**A.** The viability at 0.4677 µM was 105%.

**Q.** And the viability at 0.04677 µM ([1]; IMR-90, Control cells, log (dose) [M] -7.33, individual replicates, SUP FIG 4C, read-out: % Cell Survival)?
**A.** Its viability at 0.04677 µM is 100%.

**Q.** What about the viability at 0.02188 µM ([1]; IMR-90, Control cells, log (dose) [M] -7.66, individual replicates, SUP FIG 4C, read-out: % Cell Survival) of the same molecule?
**A.** Its viability at 0.02188 µM is 120%.

**Q.** And the viability at 0.01 µM ([1]; IMR-90, Control cells, log (dose) [M] -8, individual replicates, SUP FIG 4C, read-out: % Cell Survival)?
**A.** Its viability at 0.01 µM is 113%.

**Q.** And the viability at 10 µM ([1]; IMR-90, Control, log (dose) [M] -5, read-out: % Cell Survival)?
**A.** The viability at 10 µM was 97.9%.

**Q.** And the viability at 4.68 µM ([1]; IMR-90, Control, log (dose) [M] -5.33, read-out: % Cell Survival)?
**A.** The viability at 4.68 µM was 96.8%.

**Q.** And the viability at 2.19 µM ([1]; IMR-90, Control, log (dose) [M] -5.66, read-out: % Cell Survival)?
**A.** The viability at 2.19 µM was 91.6%.

**Q.** And the viability at 0.219 µM ([1]; IMR-90, Control, log (dose) [M] -6.66, read-out: % Cell Survival)?
**A.** Its viability at 0.219 µM is 93.8%.

**Q.** What about the viability at 0.1 µM ([1]; IMR-90, Control, log (dose) [M] -7, read-out: % Cell Survival) of the same molecule?
**A.** Its viability at 0.1 µM is 91.7%.

**Q.** And the viability at 0.04677 µM ([1]; IMR-90, Control, log (dose) [M] -7.33, read-out: % Cell Survival)?
**A.** Its viability at 0.04677 µM is 92.8%.

**Q.** And the viability at 0.0219 µM ([1]; IMR-90, Control, log (dose) [M] -7.66, read-out: % Cell Survival)?
**A.** Its viability at 0.0219 µM is 98.3%.

**Q.** And the viability at 0.01 µM ([1]; IMR-90, Control, log (dose) [M] -8, read-out: % Cell Survival)?
**A.** Its viability at 0.01 µM is 100%.

**Q.** What about the viability at 10 µM ([2]; log (dose) [M] -5) of the same molecule?
**A.** Its viability at 10 µM is 112%.

**Q.** And the viability at 4.68 µM ([2]; log (dose) [M] -5.33)?
**A.** The viability at 4.68 µM was 122%.

**Q.** What about the viability at 2.19 µM ([2]; log (dose) [M] -5.66) of the same molecule?
**A.** Its viability at 2.19 µM is 121%.

**Q.** What about the viability at 1 µM ([2]; log (dose) [M] -6) of the same molecule?
**A.** Its viability at 1 µM is 87.3%.

**Q.** What about the viability at 0.468 µM ([2]; log (dose) [M] -6.33) of the same molecule?
**A.** Its viability at 0.468 µM is 80.2%.

**Q.** And the viability at 0.219 µM ([2]; log (dose) [M] -6.66)?
**A.** Its viability at 0.219 µM is 102%.

**Q.** What about the viability at 0.1 µM ([2]; log (dose) [M] -7) of the same molecule?
**A.** The viability at 0.1 µM was 114%.

**Q.** And the viability at 0.0468 µM ([2]; log (dose) [M] -7.33)?
**A.** The viability at 0.0468 µM was 106%.

**Q.** And the viability at 0.0219 µM ([2]; log (dose) [M] -7.66)?
**A.** Its viability at 0.0219 µM is 98.6%.

**Q.** What about the viability at 0.01 µM ([2]; log (dose) [M] -8) of the same molecule?
**A.** Its viability at 0.01 µM is 91.8%.

**Q.** What about the viability at 10 µM ([3]; log (dose) [M] -5) of the same molecule?
**A.** The viability at 10 µM was 95.4%.

**Q.** And the viability at 4.68 µM ([3]; log (dose) [M] -5.33)?
**A.** Its viability at 4.68 µM is 61.9%.

**Q.** And the viability at 2.19 µM ([3]; log (dose) [M] -5.66)?
**A.** Its viability at 2.19 µM is 89.3%.

**Q.** What about the viability at 1 µM ([3]; log (dose) [M] -6) of the same molecule?
**A.** Its viability at 1 µM is 98.7%.

**Q.** What about the viability at 0.468 µM ([3]; log (dose) [M] -6.33) of the same molecule?
**A.** Its viability at 0.468 µM is 110%.

**Q.** What about the viability at 0.219 µM ([3]; log (dose) [M] -6.66) of the same molecule?
**A.** The viability at 0.219 µM was 94.4%.

**Q.** And the viability at 0.1 µM ([3]; log (dose) [M] -7)?
**A.** The viability at 0.1 µM was 93.1%.

**Q.** And the viability at 0.0468 µM ([3]; log (dose) [M] -7.33)?
**A.** The viability at 0.0468 µM was 91.6%.

**Q.** And the viability at 0.0219 µM ([3]; log (dose) [M] -7.66)?
**A.** The viability at 0.0219 µM was 96.1%.

**Q.** What about the viability at 0.01 µM ([3]; log (dose) [M] -8) of the same molecule?
**A.** Its viability at 0.01 µM is 96.9%.

Source: PMC10257182, “Discovery of senolytics using machine learning” (Nature Communications, 2023)
